# According to patent publication US12655116B2, “Substituted isophthalic acid diamides” (Bayer Aktiengesellschaft, priority 2020, dated 2026):
# Columns and labels:
# VIOTR [1] = test: Post-emergence herbicidal action against VIOTR; format: in vivo, Viola tricolor; conditions: Viola tricolor, 504 h
# How it was run: (§1)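 Greenhouse pot plants in sandy loam were sprayed at the one-leaf stage, 2 to 3 weeks after sowing, with WP or EC formulations as aqueous suspension or emulsion (600 to 800 l/ha water, 0.2% wetting agent). About 3 weeks later, damage was scored visually against untreated controls as % action (100% = dead, 0% = like control).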
# ABUTH [2] = test: Post-emergence herbicidal action against ABUTH; format: in vivo, Abutilon theophrasti; conditions: Abutilon theophrasti, 504 h, visual assessment about 3 weeks after treatment vs untreated controls; for pest or weed control at 5 g/ha: dosage 5 g/ha; for pest or weed control at 20 g/ha: dosage 20 g/ha
# How it was run: as §1
# SETVI [3] = test: Post-emergence herbicidal action against SETVI; format: in vivo, Setaria viridis; conditions: Setaria viridis, 504 h; for pest or weed control at 20 g/ha: dosage 20 g/ha
# How it was run: as §1
# POLCO = test: Pre-emergence herbicidal action against POLCO; format: in vivo, Polygonum convolvulus; conditions: Fallopia convolvulus, 504 h; for pest or weed control at 20 g/ha: dosage 20 g/ha; for pest or weed control at 80 g/ha: dosage 80 g/ha
# How it was run: (§2)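 Visual rating at 3 weeks vs untreated pots; 0–100% scale, 100% = plants died. Treatment: aqueous WP/EC spray onto covering soil, 600–800 l/ha, 0.2% wetter, seeds in sandy loam.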
# AMARE [4] = test: Pre-emergence herbicidal action against AMARE; format: in vivo, Amaranthus retroflexus; conditions: Amaranthus retroflexus, 504 h, scored visually after 3 weeks vs untreated controls, 100% = plants have died, 0% = like control plants
# How it was run: as §2
# DIGSA [5] = test: Post-emergence herbicidal action against DIGSA; format: in vivo, Digitaria sanguinalis; conditions: Digitaria sanguinalis, 504 h
# How it was run: as §1
# VERPE [6] = test: Pre-emergence herbicidal action against VERPE; format: in vivo, Veronica persica; conditions: Veronica persica, 504 h, dosage 80 g/ha
# How it was run: as §2
# ABUTH [7] = test: Pre-emergence herbicidal action against ABUTH; format: in vivo, Abutilon theophrasti; conditions: Abutilon theophrasti, 504 h; for pest or weed control at 80 g/ha: scored visually after 3 weeks vs untreated controls (100% = plants have died, 0% = like control plants); for pest or weed control at 20 g/ha: dosage 20 g/ha, scored visually after 3 weeks vs untreated controls, 100% = plants have died, 0% = like control plants, read-out: Pre-emergence action against ABUTH (herbicidal activity in percent)
# How it was run: as §2
# ECHCG [8] = test: Post-emergence herbicidal action against ECHCG; format: in vivo, Echinochloa crus-galli; conditions: Echinochloa crus-galli, 504 h; for pest or weed control at 5 g/ha: dosage 5 g/ha; for pest or weed control at 20 g/ha: dosage 20 g/ha
# How it was run: as §1
# PHBPU [9] = test: Pre-emergence herbicidal action against PHBPU; format: in vivo, Pharbitis purpurea; conditions: Ipomoea purpurea, 504 h, dosage 80 g/ha
# How it was run: as §2
# ECHCG [10] = test: Pre-emergence herbicidal action against ECHCG; format: in vivo, Echinochloa crus-galli; conditions: Echinochloa crus-galli, 504 h
# How it was run: as §2
# SETVI [11] = test: Pre-emergence herbicidal action against SETVI; format: in vivo, Setaria viridis; conditions: Setaria viridis, 504 h; for pest or weed control at 80 g/ha: dosage 80 g/ha
# How it was run: as §2
# ALOMY = test: Pre-emergence herbicidal action against ALOMY; format: in vivo, Alopecurus myosuroides; conditions: Alopecurus myosuroides, 504 h; 80 g/ha, pre-emergence, scored visually after 3 weeks vs untreated controls (100% = plants have died, 0% = like control plants)
# How it was run: as §2
# MATIN [12] = test: Pre-emergence herbicidal action against MATIN; format: in vivo, Matricaria inodora; conditions: Tripleurospermum inodorum, 504 h; for pest or weed control at 20 g/ha: dosage 20 g/ha; for pest or weed control at 80 g/ha: dosage 80 g/ha
# How it was run: as §2
# AMARE [13] = test: Post-emergence herbicidal action against AMARE; format: in vivo, Amaranthus retroflexus; conditions: Amaranthus retroflexus, 504 h, 20 g/ha, visual assessment about 3 weeks after treatment, 100% = plants have died, 0% = like control plants
# How it was run: as §1
# DIGSA [14] = test: Pre-emergence herbicidal action against DIGSA; format: in vivo, Digitaria sanguinalis; conditions: Digitaria sanguinalis, 504 h; for pest or weed control at 20 g/ha: dosage 20 g/ha; for pest or weed control at 80 g/ha: dosage 80 g/ha
# How it was run: as §2
# PHBPU [15] = test: Post-emergence herbicidal action against PHBPU; format: in vivo, Pharbitis purpurea; conditions: Ipomoea purpurea, 504 h; for pest or weed control at 20 g/ha: dosage 20 g/ha
# How it was run: as §1
# AVEFA = test: Pre-emergence herbicidal action against AVEFA; format: in vivo, Avena fatua; conditions: Avena fatua, 504 h; 80 g/ha, pre-emergence
# How it was run: as §2
# VERPE [16] = test: Post-emergence herbicidal action against VERPE; format: in vivo, Veronica persica; conditions: Veronica persica, 504 h
# How it was run: as §1
# MATIN [17] = test: Post-emergence herbicidal action against MATIN; format: in vivo, Matricaria inodora; conditions: Tripleurospermum inodorum, 504 h; for pest or weed control at 5 g/ha: dosage 5 g/ha; for pest or weed control at 20 g/ha: dosage 20 g/ha
# How it was run: as §1
# VIOTR [18] = test: Pre-emergence herbicidal action against VIOTR; format: in vivo, Viola tricolor; conditions: Viola tricolor, 504 h; for pest or weed control at 20 g/ha: dosage 20 g/ha; for pest or weed control at 80 g/ha: dosage 80 g/ha
# How it was run: as §2
Compound,pest or weed control at 5 g/ha (VIOTR [1]),pest or weed control at 20 g/ha (VIOTR [1]),pest or weed control at 5 g/ha (ABUTH [2]),pest or weed control at 20 g/ha (ABUTH [2]),pest or weed control at 20 g/ha (SETVI [3]),pest or weed control at 20 g/ha (POLCO),pest or weed control at 80 g/ha (POLCO),pest or weed control at 20 g/ha (AMARE [4]),pest or weed control at 80 g/ha (AMARE [4]),pest or weed control at 5 g/ha (DIGSA [5]),pest or weed control at 20 g/ha (DIGSA [5]),pest or weed control at 80 g/ha (VERPE [6]),pest or weed control at 80 g/ha (ABUTH [7]),pest or weed control at 20 g/ha (ABUTH [7]),pest or weed control at 5 g/ha (ECHCG [8]),pest or weed control at 20 g/ha (ECHCG [8]),pest or weed control at 80 g/ha (PHBPU [9]),pest or weed control at 80 g/ha (ECHCG [10]),pest or weed control at 80 g/ha (SETVI [11]),pest or weed control at 80 g/ha (ALOMY),also measured
CCNC(=O)c1c(C(F)F)ccc(C(=O)Nc2nnnn2C)c1CC [Example 1-278],90%,90%,80%,90%,90%,90%,100%,100%,100%,90%,90%,100%,100%,90%,90%,90%,90%,100%,100%,90%,pest or weed control at 20 g/ha (ECHCG [10]; 20 g/ha): 90%; pest or weed control at 20 g/ha (MATIN [12]): 100%; pest or weed control at 80 g/ha (MATIN [12]): 100%; pest or weed control at 20 g/ha (AMARE [13]): 90%; pest or weed control at 20 g/ha (DIGSA [14]): 100%; pest or weed control at 80 g/ha (DIGSA [14]): 100%; pest or weed control at 20 g/ha (PHBPU [15]): 90%; pest or weed control at 80 g/ha (AVEFA): 90%; pest or weed control at 5 g/ha (VERPE [16]): 80%; pest or weed control at 20 g/ha (VERPE [16]): 90%; pest or weed control at 5 g/ha (MATIN [17]): 80%; pest or weed control at 20 g/ha (MATIN [17]): 90%; pest or weed control at 20 g/ha (VIOTR [18]): 100%; pest or weed control at 80 g/ha (VIOTR [18]): 100%
CCc1c(C(=O)Nc2nnnn2C)ccc(C(F)F)c1C(=O)NC1CC1 [Example 1-279],90%,90%,80%,90%,90%,80%,90%,100%,100%,90%,90%,90%,100%,100%,80%,90%,90%,100%,100%,80%,pest or weed control at 5 g/ha (SETVI [3]; dosage 5 g/ha): 90%; pest or weed control at 20 g/ha (SETVI [11]; dosage 20 g/ha): 80%; pest or weed control at 20 g/ha (MATIN [12]): 100%; pest or weed control at 80 g/ha (MATIN [12]): 100%; pest or weed control at 20 g/ha (AMARE [13]): 100%; pest or weed control at 20 g/ha (DIGSA [14]): 100%; pest or weed control at 80 g/ha (DIGSA [14]): 100%; pest or weed control at 5 g/ha (PHBPU [15]; dosage 5 g/ha): 90%; pest or weed control at 20 g/ha (PHBPU [15]): 90%; pest or weed control at 80 g/ha (AVEFA): 90%; pest or weed control at 5 g/ha (VERPE [16]): 80%; pest or weed control at 20 g/ha (VERPE [16]): 100%; pest or weed control at 5 g/ha (MATIN [17]): 90%; pest or weed control at 20 g/ha (MATIN [17]): 90%; pest or weed control at 20 g/ha (VIOTR [18]): 100%; pest or weed control at 80 g/ha (VIOTR [18]): 100%
